# Non-standard residues stand in square brackets, D forms with d. No end group written: not given here.
# Experiments:
# tau-protein = assay: ThT aggregation assay of tau-protein with heparin; type: biochemical; conditions: 24 µM tau, 6 µM heparin, 36 h
# Procedure: A ThT-aggregation assay of tau was performed for quantifying the relative content of fibrils in the presence of peptides and heparin (6 µM). The concentration of tau-protein was 24 µM, the peptides were added at a ratio of 1:5 and 1:10 (tau-protein:peptide). The fluorescence measured of 24 µM tau-protein after incubation for 36h was arbitrarily set to be 100%, and the measured values and standard deviations of the other incubations are indicated as percentage proportions of this maximum value.
# A ThT-aggregation assay of tau was performed for quantifying the relative content of fibrils in the presence of peptides and heparin (6 µM). Here, the D-enantiomers of the peptides and their retro-inverso-versions are used. "retro-inverso-version" as used herein, refers to a sequence wherein the amino acid sequence of one peptide, as read from its N-terminus to its C-terminus, has been reversed, such that the N-terminus and C-terminus of the peptide sequence have been inverted. The concentration of tau-protein was 24 µM, and the peptides MMD2 and MMD2rev were added at a ratio of 1:10. The peptides MMD3 and MMD3rev were added at a ratio of 1:5 and 1:10 (tau-protein:peptide). The fluorescence of tau-protein at 24 µM after an incubation of 36 h was arbitrarily set to be 100% and the measured values and standard deviations of the other incubations are indicated as percentage proportions of this maximum value.
# To test the ability of the L-synthesized peptides to inhibit the aggregation of tau in vitro, thioflavin assays were performed. The peptides were added to the aggregation mix in a molar ratio of 1:5 and/or 1:10 (tau:peptide), respectively. As positive control, tau was incubated with heparin without addition of peptides, negative controls were tau alone with THT and buffer including THT. The relative fluorescence of the positive control was set to be 100% after 36 h of incubation and the relative fluorescence of the samples was normalized to the positive control.
# To investigate the potential of the selected D-peptides MMD2, MMD2rev, MMD3 and MMD3rev to inhibit fibrillization of full-length tau, thioflavin fluorescence assays were performed. Tau aggregation was initiated by addition heparin to tau protein in a concentration of 24 µM, the mixtures were incubated in absence or presence of the respective peptide in a molar ratio of 1:10, in case of MMD2 as well as MMD2rev, and in molar ratio 1:10 and 1:5, in case of MMD3 and MMD3rev. After 36 hours of incubation, the fluorescence of the tau and heparin control sample reached a saturation level, and the value of fluorescence was set to 100%. […] MMD2 reduce the aggregation of tau to about 90% and MMD2rev reduce the aggregation to about 70%. […] The inventors observed also that ThT fluorescence decreased with increasing concentration of the MMD3 and MMD3rev signifying a robust dose-dependent inhibition of full-length tau aggregation.
# tau monomers = assay: ELISA binding of FAM-labeled peptides to tau monomers; conditions: plate coated with 20 µg/ml tau monomers, FAM-labeled peptide in increasing concentrations, absorbance at 450 nm
# Procedure: (§1) Peptides were used that had been labeled with a FAM (=5/6-carboxyfluorescein) at the C-terminus. The peptides used were MM2 (= LTPHKHHKHLHA as L-enantiomer = SEQ ID NO: 6) and MM3 (SEQ ID NO: 1), to which a Lys (FAM)-NH2-residue had been attached at the C-terminus, respectively. The wells of a 96-well plate were coated with 20 µg/ml monomeric tau-protein or tau-fibrils and were incubated for 1h. After washing three times with PBS-T (phosphate-buffered saline with 0.1 % tween), the free binding sites were blocked for over a period of 1 hour. The respective peptides MM2-Lys(FAM)-NH2 and MM3-Lys(FAM)-NH2 were added (1 µg/ml, 5 µg/ml, 10 µg/ml, 20 µg/ml) and incubated for 1h. A specific anti-FITC-HRP antibody (anti-fluorescein-isothiocyanate-horseradish-peroxidase) was added in 1:1000 dilution and was incubated for 1h. Thereafter, TMB-substrate was added and incubated for 20 min. After […] of enzyme reaction by addition of 20% sulfuric acid, the absorption at 450 nm was determined. Measurements were performed in triplicate and the average values of the measured absorption of these triplicate samples as well as their standard deviations are shown in figure 1.
# (§2) The binding affinity of MMD2 and MMD3 was tested using ELISA. […] The detection was done with anti-FAM HRP antibodies and absorbance was measured at 450 nm. […]
# PHF6* = assay: Thioflavin T test of PHF6* aggregation; type: biochemical; conditions: 1000 µM peptide, 100 µM PHF6*, 10 µM thioflavin T, RT, ThT fluorescence monitored over 30 h
# Procedure: PHF6*-fibrils are fibrils comprising the D-enantiomeric version of tau-peptide VQIINK (SEQ ID NO: 5). Peptides MMD3 and MMD3rev were diluted in sodium phosphate buffer to 1000 µM, and 100 µM PHF6*-solution and 10 µM thioflavin T were added. 100 µM PHF6* and 10 µM thioflavin in Napi-buffer was used as positive control. The negative control was 10 µM thioflavin T in Napi-buffer only. The samples were pipetted into a black 96-well µclear flat-bottom plate and incubated for 30 h,the relative fluorescence (excitation = 440 nm and emission = 480 nm) was determined. Triplicate measurements were performed for each sample.
# To test whether MMD3 and MMD3rev reduce PHF6* fibril formation, 1000 µM from the respective peptides were incubated with 100 µM PHF6* at RT, as positive control PHF6* was incubated alone. The relative fluorescence of THT was monitored over 30 h.
# tau fibrils = assay: ELISA binding of FAM-labeled peptides to tau fibrils; conditions: plate coated with 20 µg/ml tau fibrils, FAM-labeled peptide in increasing concentrations, absorbance at 450 nm
# Procedure: as §1, §2
# PHF6* fibrils = assay: ELISA binding of FAM-labeled peptide to PHF6* fibrils; conditions: plate coated with 50 µg/ml PHF6* fibrils, FAM-labeled peptide 10, 20, 50 µg/ml, absorption at 450 nm
# Procedure: As used herein, "PHF6*-fibrils" are fibrils comprising the D-enantiomeric version of tau-peptide VQIINK (SEQ ID NO: 5). The wells of a 96-well plate were coated with 50 µg/ml PHF6*-fibrils and were incubated for 1h. After washing of wells three times with PBS-T (phosphate buffer saline with 0.1 % tween), the free binding sites were blocked for 1 hour. Peptide MMD3-Lys(FAM)-NH2 was added (10 µg/ml, 20 µg/ml and 50 µg/ml) and incubated for 1 h. A specific anti-FITC-HRP-antibody was added at a dilution of 1:1000 and incubated for 1h. Thereafter, TMB-substrate solution was added and incubated for 20 min. After termination of the enzyme reaction by additional 20 % sulfuric acid, absorption at 450 nm was measured. The absorption of the negative control (buffer only) was substracted. Triplicate measurements were performed, at the average values of the measured absorptions of the different samples are shown as well as their respective standard deviations.
# To evaluate the binding properties of MMD3 to PHF6* fibrils, ELISA was performed with FAM-labeled version of the peptide. […] The peptide was added in an increasing concentration, the bound peptide was detected with anti-FAM antibodies. After adding the substrate, the absorption at 450 nm, which represents the binding affinities, was measured.
Substance,"aggregation of tau (relative ThT fluorescence, positive control tau + heparin = 100%) (tau-protein; molar ratio 1:5 (tau:peptide))","aggregation of tau (relative ThT fluorescence, positive control tau + heparin = 100%) (tau-protein; molar ratio 1:10 (tau:peptide))",binding to tau monomers (tau monomers),inhibition of PHF6* fibril formation (PHF6*),binding to tau fibrils (tau fibrils),binding to PHF6* fibrils (PHF6* fibrils)
DPLKARHTSVWY [MM3],significantly inhibiting tau fibrils formation,significantly inhibiting tau fibrils formation,–,–,–,–
"LTPHKHHKHLHA [MM2, reference compound]",about 50%,nearly complete inhibition,–,–,–,–
"ahlhkhhkhptl (AHLHKHHKHPTL; all D-amino acids) [MMD2rev, reference compound]",–,about 70%,–,–,–,–
dplkarhtsvwy ([dD][dP][dL][dK][dA][dR][dH][dT][dS][dV][dW][dY]) [MMD3],inhibited formation of tau aggregates significantly,inhibited formation of tau aggregates significantly,binding could be demonstrated,did indeed inhibit the formation of PHF6* fibrils,binding could be demonstrated,bound to PHF6* fibrils in concentration-dependent manner
"ltphkhhkhlha [MMD2, reference compound]",–,about 90%,binding could be demonstrated,–,binding could be demonstrated,–
ywvsthraklpd ([dY][dW][dV][dS][dT][dH][dR][dA][dK][dL][dP][dD]) [MMD3rev],inhibited formation of tau aggregates significantly,inhibited formation of tau aggregates significantly,–,did indeed inhibit the formation of PHF6* fibrils,–,–
